Measurements taken from ChEMBL document CHEMBL1141179 (J Med Chem, 2005).
Bridge positions count the residues as written; N and C are the ends. Square brackets hold non-standard residues; d marks the D form. Peptide text beside a SMILES is read from it.

Columns and labels:
[1] = organism: Rattus norvegicus; experiment: Relative potency of compound to inhibit insulin secretion […]; type: functional
[2] = organism: Rattus norvegicus; experiment: Relative potency of compound to inhibit growth hormone secretion in rat anterior pituitary cells; type: functional, Pituitary gland cell
[3] = organism: Rattus norvegicus; experiment: Relative potency of compound to inhibit glucagon secretion […]; type: functional

## C[C@@H](O)[C@@H]1NC(=O)[C@H](CCCCN)NC(=O)[C@@H](Cc2c[nH]c3ccccc23)NC(=O)[C@H](Cc2ccccc2)NC(=O)[C@H](Cc2ccccc2)NC(=O)[C@@H](N)CSSC[C@@H](C(=O)O)NC(=O)[C@H](Cc2ccccc2)NC1=O (H-CFF[dW]KTFC-OH; disulfide 1-8)
[1]
  Relative potency: 45
[2]
  Relative potency: 4
[3]
  Relative potency: 7
